Source: publication PMC8122671, “New Succinimides with Potent Anticancer Activity: Synthesis, Activation of Stress Signaling Pathways and Characterization of Apoptosis in Leukemia and Cervical Cancer Cells” (International Journal of Molecular Sciences, 2021)
“Also recorded” adds a separate entry of the source. Like-named read-outs stand apart in the source and are kept apart here.

Assays:
[1] = system: HeLa (human cervix carcinoma) cells; assay: MTT cytotoxicity assay, HeLa; type: cell-based; conditions: 48 h incubation, average (SD) of three experiments, read-out: IC50 HeLa
Experimental: (§1) The cytotoxicity of new derivatives of dicarboximides was tested in HeLa (cervix carcinoma cell line), K562 (myelogenous leukemia cell line), MOLT-4 (Human T-Lymphoid Cell Line), and HUVEC (normal endothelial) cells. First, the viability of cells was determined after 48 h incubation with the screened compounds used at the concentration of 100 μM (data not shown). […] Cells exposed to 1% DMSO (as vehicle) served as the control with 100% survival.
(§2) Human umbilical vein endothelial cells (Life Technologies, Carlsbad, CA, USA) were cultured (according to the manufacturer’s instructions) in Medium 200 containing low serum growth supplement; 1 × 10^4 cells were seeded on each well on a 96-well plate (Nunc, Roskilde, Denmark). The HeLa (human cervix carcinoma), K562, and MOLT-4 (leukemia) cells were cultured in RPMI 1640 medium supplemented with antibiotics and 10% fetal calf serum in a 5% CO2–95% air atmosphere; 7 × 10^3 cells were seeded on each well on a 96-well plate (Nunc). Twenty-four hours later, cells were exposed to the test compounds for additional 48 hours. Stock solutions of test compounds were freshly prepared in DMSO. The final concentrations of the compounds tested in the cell cultures were 2 × 10^−1, 1 × 10^−1, 5 × 10^−2, 1 × 10^−2, 1 × 10^−3, and 1 × 10^−4 mM. The concentration of DMSO in the cell culture medium was 1%. The values of IC50 (the concentration of test compound required to reduce the cell survival fraction to 50% of the control) were calculated from dose–response curves and used as a measure of cellular sensitivity to a given treatment. The cytotoxicity of all compounds was determined by the MTT [3-(4,5-dimethylthiazol-2-yl)-2,5-diphenyltetrazolium bromide; Sigma, St. Louis, MO, USA] assay. Briefly, after 24 or 48 h of incubation with drugs, the cells were treated with the MTT reagent, and incubation was continued for 2 h. MTT-formazan crystals were dissolved in 20% SDS and 50% DMF at pH 4.7, and absorbance was read at 570 and 650 nm on a microplate reader FLUOstar Omega (BMG Labtech, Offenburg, Germany). As a control (100% viability), we used cells grown in the presence of the vehicle (1% DMSO) only.

[2] = system: K562 (myelogenous leukemia cell line); assay: MTT cytotoxicity assay, K562; type: cell-based, human; conditions: 48 h incubation, average (SD) of three experiments, read-out: IC50 K562
Experimental: as §1, §2

[3] = system: MOLT-4 (Human T-Lymphoid Cell Line); assay: MTT cytotoxicity assay, MOLT-4; type: cell-based; conditions: MOLT-4, 48 h incubation, average (SD) of three experiments, read-out: IC50 MOLT-4
Experimental: as §1, §2

[4] = system: HUVEC (normal endothelial) cells; assay: MTT cytotoxicity assay, HUVEC; type: cell-based; conditions: Homo sapiens, 48 h incubation, average (SD) of three experiments, read-out: IC50 HUVEC
Experimental: as §1, §2

[5] = system: caspase 3/7 in K562 cells; assay: Caspase-3/7 activity assay (Apo-ONE) in K562 cells; type: cell-based, human; conditions: K562, 18 h, test compound at 5xIC50, staurosporine 1 μM; vs 1% DMSO
Experimental: After incubation for 18 h, K562 cells were lysed and the activity of caspase 3/7 was measured using a profluorescent peptide substrate.
First, 20 × 10^3 K562 cells were seeded on each well of a 96-well plate in RPMI 1640 medium supplemented with 10% fetal calf serum and antibiotics. Cells were grown for 24 h at 37 °C and 5% CO2. Test dicarboximides were dissolved in DMSO and added to cell culture to the final concentration of 5 × IC50. […] Cells were exposed to test compounds for 18 h at 37 °C and 5% CO2. Subsequently, the activity of caspase 3 and 7 was measured by Apo-ONE® Homogeneous Caspase-3/7 Assay (Promega, Madison, WI, USA) according to the manufacturer’s instructions. Briefly, the cells were lysed and incubated for 1.5 h with a profluorescent substrate for caspase 3 and 7. Next, the fluorescence was read at an excitation wavelength of 485 nm and emission of 520 nm with a FLUOStar Omega microplate reader (BMG-Labtech, Offenburg, Germany).

[6] = system: plasmid DNA (pcDNA3.1HisC); assay: DNA-cleavage protection assay (BamHI digestion of plasmid DNA); type: biochemical; conditions: 100 µM, overnight 37 °C, then BamHI 3 h
Experimental: A DNA-cleavage protection assay has been successfully used for the identification of compounds that bind DNA either covalently or noncovalently. Such binding may result in DNA being less susceptible to enzymatic cleavage. […] It was also reported that naphtalenoimides or indolomaleimides intercalate into DNA [13, 14]. […] In CD studies, a synthetic 23-nt duplex DNA or bovine thymus DNA was incubated with compound Ic or daunorubicin (reference compound). […] Using a DNA-cleavage protection assay, we investigated whether selected compounds 2c, 2d, and 2f and 3c, 3d, and 3f interact with a plasmid DNA, resulting in increased resistance to endonucleolytic cleavage. Plasmid DNA (pcDNA3.1HisC) containing a single BamHI cleavage site was incubated with test compounds and subsequently digested with BamH1 restriction endonuclease. Daunorubicin (a strong DNA-intercalating agent) was used as a reference compound. Non-digested plasmid DNA existed predominantly in the circular form; however, the superhelical and linear forms were also detected (Figure 5, lane 1). […] This observation can be explained by the higher lipophilicity of 3c, 3d, and 3f compared to 2c, 2d, and 2f, which may facilitate their more efficient binding to DNA.
First, 0.5 μg of plasmid DNA (pcDNAHisC, total length 5.5 kbp) containing a unique BamHI restriction site was dissolved in a 1× BamHI reaction buffer and incubated overnight at 37 °C with the test compounds or daunorubicin. Daunorubicin, a strong intercalating agent, was used as a positive control. The concentration of the test compounds and daunorubicin samples was 100 µM. In the next step, the reaction mixtures were digested with BamHI restriction endonuclease (2 U/μL) for 3 h at 37 °C. The total reaction volume was 10 μL. Products of the reaction were subjected to the 1% agarose gel electrophoresis in TBE buffer. The gel was stained with ethidium bromide, and DNA fragments were visualized under a UV lamp (GBox, Syngene).

[7] = MTT cytotoxicity assay, cancer cell lines taken together (HeLa, K562, MOLT-4); type: cell-based; conditions: human, K562 and MOLT-4 cancer cells
Experimental: The cytotoxicity of new derivatives of dicarboximides was tested in HeLa (cervix carcinoma cell line), K562 (myelogenous leukemia cell line), MOLT-4 (Human T-Lymphoid Cell Line), and HUVEC (normal endothelial) cells. First, the viability of cells was determined after 48 h incubation with the screened compounds used at the concentration of 100 μM (data not shown). For compounds that reduced the viability of cancer cells by more than 50%, the IC50 values were determined (Table 2). Cells exposed to 1% DMSO (as vehicle) served as the control with 100% survival.
Human umbilical vein endothelial cells (Life Technologies, Carlsbad, CA, USA) were cultured (according to the manufacturer’s instructions) in Medium 200 containing low serum growth supplement; 1 × 10^4 cells were seeded on each well on a 96-well plate (Nunc, Roskilde, Denmark). […] The cytotoxicity of all compounds was determined by the MTT [3-(4,5-dimethylthiazol-2-yl)-2,5-diphenyltetrazolium bromide; Sigma, St. Louis, MO, USA] assay. […] MTT-formazan crystals were dissolved in 20% SDS and 50% DMF at pH 4.7, and absorbance was read at 570 and 650 nm on a microplate reader FLUOstar Omega (BMG Labtech, Offenburg, Germany). […]

melting point [°C] | Structure (SMILES) | IC50 [1] [µM] | IC50 [2] [µM] | IC50 ([2]; Homo sapiens, K562, 48 h) [µM] | IC50 [3] [µM] | IC50 [4] [µM] | activity of caspase 3/7 [5] | protection of plasmid DNA from BamHI digestion (circular DNA left) [6] | viability at 48 h, 1 µM [7] [%]
 | CCC12C(=O)C(CC)(C(c3ccccc3)=C1c1ccccc1)C1C(=O)N(CC(O)CN3CCCCC3)C(=O)C12 (stereo not shown) [2f, 4-[2-hydroxy-3-(piperidin-1-yl)propyl]-1,7-diethyl-8,9-diphenyl-4-azatricyclo[5.2.1.0^2,6]dec-8-ene-3,5,10-trione] | 5.1 | 3.9 | < 6 | 3.4 | 3.1 | over eight-fold increase in caspase activity; also recorded: activated caspase 3 and 7 | the circular form was also detected | 
 | O=C1C2C(C(=O)N1CC(O)CN1CCCCC1)C1(c3ccccc3)CC2(c2ccccc2)C(c2ccccc2)=C1c1ccccc1 (stereo not shown) [3f, 4-[2-hydroxy-3-(piperidin-1-yl)propyl]-1,7,8,9-tetraphenyl-4-azatricyclo[5.2.1.0^2,6]dec-8-ene-3,5-dione] | 3 | 3 | < 6 | 3 | 0.4 | activated caspase 3/7 to a lesser extent; also recorded: activated caspase 3 and 7 | interaction seems to be stronger | 
197 to 198 | O=C1C2C(C(=O)N1CCO)C1(c3ccccc3)CC2(c2ccccc2)C(c2ccccc2)=C1c1ccccc1 (stereo not shown) [compound 5, 4-(2-hydroxyethyl)-1,7,8,9-tetraphenyl-4-azatricyclo[5.2.1.02,6]dec-8-ene-3,5-dione] | 8 |  | 6.2 | 2.1 | 0.7 |  |  | 
 | COc1cccc2c1C(=O)c1c(O)c3c(c(O)c1C2=O)C[C@@](O)(C(C)=O)C[C@@H]3O[C@H]1C[C@H](N)[C@H](O)[C@H](C)O1 [daunorubicin, reference compound] |  |  |  |  |  |  | prevented linearization of DNA | 
 | CN[C@@H]1C[C@H]2O[C@@](C)([C@@H]1OC)n1c3ccccc3c3c4c(c5c6ccccc6n2c5c31)C(=O)NC4 [staurosporine, reference compound] |  |  |  |  |  | strongly activated caspase 3/7 |  | 44 to 49
